Data on two compounds can be found in article PMC6491995, “Preclinical evaluation of the first intravenous small molecule MDM2 antagonist alone and in combination with temozolomide in neuroblastoma” (International Journal of Cancer, 2019).

One series has as its system NB1691 cells. Further details: method as in PMID 25844600. The following applies: 72 h, read-out: 72 h GI50 concentration; cited from earlier work.
Series [1] is described as follows: PK of orally formulated idasanutlin in subcutaneous NGP neuroblastoma xenograft model. Format: in vivo. To be noted: single oral dose equivalent to 100 mg/kg active idasanutlin, subcutaneous NGP xenograft mice, preliminary studies. How it is done:
We previously conducted similar PK/PD analyses of orally formulated idasanutlin in preliminary studies of a subcutaneous NGP neuroblastoma xenograft model after a single oral dose equivalent to 100 mg/kg of active idasanutlin (Fig. S8, Supporting Information).
Figure S8. PK and PD analysis of orally formulated idasanutlin in a TP53 wt subcutaneous xenograft model of neuroblastoma. Female CD1 nude mice were implanted subcutaneously with […] TP53 wt, MDM2 and MYCN amplified NGP neuroblastoma cells. A) PK analysis of idasanutlin levels using LC-MS in plasma samples harvested at the indicated time points from tumour bearing mice treated with a single dose equivalent to 100mg/kg of active idasanutlin by oral gavage. PD profiling for B) induction of the p53 pathway using Western analysis of p53, p21, and MDM2 levels in tumours, and C) MIC-1 levels in plasma harvested at the indicated time points from subcutaneous NGP tumour bearing mice treated with a single dose of idasanutlin by oral gavage. n=3 mice per time point. CTR, control.
(1 picture or pasted object on this page, not shown here)

Details of series [2]: method as in PMID 16047361, PMID 9744506, PMID 9738573, PMID 17114659. To be noted: clinical data in children; cited from earlier work.
The test system of series [3] is NB1691-Luc orthotopic tumours. Put plainly: Efficacy study in NB1691-Luc orthotopic tumour bearing mice. Format: in vivo. The following applies: for Reduction in bioluminescence vs. control: RO6839921 eq. 100 mg/kg IV weekly, temozolomide 34 mg/kg PO daily x5; for %ILS (Median): increase in lifespan vs. control based on median survival. How it is done:
(§1) All in vivo experiments were approved by the licencing and ethical committee of the IRCCS San Martino‐IST (Genoa, Italy), the Italian Ministry of Health, Newcastle University and the UK Government Home Office. Orthotopic murine SHSY5Y‐Luc or NB1691‐Luc models were established and monitored using bioluminescence (BLI) IVIS imaging, as previously described.18, 19, 20 RO6839921 (equivalent to 100 mg/kg of active idasanutlin) and temozolomide (34 mg/kg equivalent to 100 mg/m^2 were given by IV tail vein injection and oral gavage, respectively. Tumour bearing mice were randomised into n = 3/group and n = 8/group for pharmacokinetic (PK)/pharmacodynamic (PD) studies and efficacy studies, respectively, and samples taken at the indicated time points (Supporting Information Fig. S1). To minimise esterase activity, 0.2% dichlorvos (Sigma‐Aldrich) was added to blood samples. […] Animals were monitored 2–3 times weekly and euthanized humanely just before showing signs of illness/suffering such as abdominal dilatation, paraplegia, dehydration, or severe weight loss. Percentage increase in lifespan (%ILS) was calculated based on both median and mean survival to humane endpoint, as previously described.5 For more detailed procedures see Supporting Information.
(§2) The efficacy of RO6839921 alone and in combination with temozolomide was assessed in SHSY5Y‐Luc and NB1691‐Luc orthotopic tumour bearing mice. The intermittent schedule used is equivalent to one cycle of treatment over a 3 week period (Fig. S1, Supporting Information). Mice were randomised into control, RO6839921 (once per week for 3 weeks), temozolomide (daily x5/3 weeks; consistent with the currently used clinical dosing schedule in the BEACON Trial (NCT02308527)), or RO6839921 and temozolomide treatment groups (n = 8/group; Fig. S1, Supporting Information).
(§3) Supplementary Information
(§4) Detailed methods of orthotopic in vivo experiments
(§5) Five week old female athymic Nude-Foxn1nu mice (Envigo, Bresso, Italy) were anesthetized, subjected to a laparotomy and orthotopically injected with 1×10^6 SHSY5Y-Luc or NB1691-Luc neuroblastoma cells into the capsule of the left adrenal gland, as previously described (1-3). […]
(§6) using BLI IVIS imaging for tumour development (~2-3 weeks) prior to commencement of treatment. […]
(§7) 10min and stored at -80°C. For efficacy studies, SHSY5Y-Luc or NB1691-Luc tumour bearing mice were randomized […]
(§8) temozolomide (34mg/kg, daily x5 only by oral gavage) or RO6839921 and temozolomide treatment groups with 8 mice per group (Figure S1), and monitored by IVIS imaging for tumour growth. Baseline bioluminescence were measured prior to initiation of treatment on Day 1, and then during treatment on Days 8 (BLI1) and 15 (BLI2) (Figure S1). Twenty-four hours after the end of treatment, 3 mice per group were sacrificed for PK and PD analyses, and the remaining 5 mice per group were monitored for survival to humane endpoint (Figure S1). Animals were monitored 2-3 times weekly

The test system of series [4] is NB1691-Luc orthotopic tumours. Put plainly: IHC analysis of NB1691-Luc orthotopic tumours after one treatment cycle. Format: in vivo, mice. To be noted: 24 h after one treatment cycle, n = 3. How it is done:
Tumours were disaggregated in Phosphosafe buffer (Merck Millipore) using the Medimachine with Medicons inserts (BD Biosciences, Oxford, UK) and Western analysis carried out as previously described.21 Human MIC‐1 assays were performed according to manufacturer's protocols (R&D Systems). IHC was performed using validated protocols and the Ventana Benchmark Ultra automated system (Ventana Medical Systems, Inc, Tucson, AZ, USA) in the Cellular Pathology Department, Royal Victoria Infirmary, Newcastle upon Tyne, UK.
Figure 3 MIC‐1 levels and IHC analysis of Ki67, p53, p21, and cleaved caspase 3 (CC3) in orthotopic tumours in response to one cycle of RO6839921 and temozolomide alone and in combination. […] Statistically significant differences vs. control were determined by unpaired t‐tests. […] Graphical representation of quantification of % positive Ki67, p53, p21, and CC3 staining in (d) NB1691‐Luc and (e) SHSY5Y‐Luc orthotopic tumours using Imagescope software and algorithms (Leica Biosystems, Newcastle upon Tyne, UK) and/or scored for positive immunostaining by a consultant pathologist (KW). n = 3 mice per group. […] Statistically significant differences were determined by one‐way ANOVA with Bonferroni post‐hoc tests and paired testing vs. control. p ≤ 0.05 (*); 0.01 (**); 0.001 (***); 0.0001 (****). […]

The test system of series [5] is SHSY5Y-Luc orthotopic tumours. Put plainly: Efficacy study in SHSY5Y-Luc orthotopic tumour bearing mice. Format: in vivo. To be noted: for Reduction in bioluminescence vs. control: RO6839921 eq. 100 mg/kg IV weekly, temozolomide 34 mg/kg PO daily x5; for %ILS (Median): increase in lifespan vs. control based on median survival. How it is done: as §1, §2, §3, §4, §5, §6, §7, §8

Setting [6] is: after 1 week of treatment (Day 8/BLI1).
Setting [7] is: after 2 weeks of treatment (Day 15/BLI2).
Setting [8] is: increase in lifespan vs. control based on mean survival.
Where [9] appears, read: survival to humane endpoint, n = 5/group, one treatment cycle.

As to `COc1cc(C(=O)O)ccc1NC(=O)[C@@H]1N[C@@H](CC(C)(C)C)[C@](C#N)(c2ccc(Cl)cc2F)[C@H]1c1cccc(Cl)c1F` [idasanutlin, Idasanutlin], in the series with NB1691 cells, the GI50 is 0.041 µM. The “Plasma concentration of active idasanutlin” value in series [1] is ~5000 ng/mL.

Take `Cn1nnc2c(C(N)=O)ncn2c1=O` [temozolomide]: the “Main toxicities in children” value in series [2] is “thrombocytopenia and neutropenia”. For the same compound, the “Reduction in bioluminescence vs. control” value in series [3] (setting [6]) was found to be 35%; in series [3] (setting [7]), 24%; in series [5] (setting [6]), 36%; in series [5] (setting [7]), 39%. For the same compound, the entries for the “%ILS (Mean)” value in series [3] (setting [8]) and in series [5] (setting [8]) were 16% and 11%, respectively. Also, the “%ILS (Median)” value came out at 6% in series [3], 6% in series [3] (listed as Temozolomide), 14% in series [5] and 14% in series [5] (listed as Temozolomide). Moreover, the “Mean Survival” value in series [3] (setting [9]) came to 41 days; in series [5] (setting [9]), 49 days. Moreover, the “Median Survival” value stood at 37 days in series [3] (setting [9]) and 49 days in series [5] (setting [9]). Further, the “Ki67 positive cells vs. control (IHC)” value in series [4] is reported as “did not reduce”. The GI50 in the series with NB1691 cells is 868 µM.
